Key:
[1] = test system: male OF-1 mice; experiment: half-enclosed platform (HEP) test; format: in vivo, mouse; conditions: 0.32/1/3.2 and 10 mg/kg p.o., 1 hr before testing
Text: Rufinamide and carbamazepine were compared in the half-enclosed platform (HEP) test. The test determines how drugs affect the exploratory behaviour of a mouse placed upon a novel, half-enclosed platform and gives information as to whether a drug is a stimulant, depressant or disinhibitory as with, for example the benzodiazepines which increase exploration of the platform. It is also useful for determining duration of action and dose-findings studies. The HEP is a further development of the simple elevated platform used by Kaesermann to assess anxiolytic properties of drugs (Ref. Käsermann H. P. (1986) Psychopharmacol. 89:31-37). In this study carbamazepine and rufinamide were tested in the same dose ranges i.e. 0.32/1/3.2 and 10 mg/kg p.o. of each were given to male OF-1 mice 1 hr before testing.
The ethogram used consists of 9 elements of exploratory behaviour two of which involve static postures i.e. immobility and stretched attend posture, the latter being an ambivalent element indicative of approach-avoidance conflict. These elements are immediately spontaneous and are not induced by either training or punishment procedures. Upright postures which are posturally demanding are useful to detect muscle relaxation e.g. rearing (FIG. 10).

[2] = test system: Male OF1/IC mice; experiment: modified stress-induced hyperthermia (SIH) test; format: in vivo, mouse
Protocol: Rufinamide was tested in the modified stress-induced model of anxiety. The stress-induced hyperthermia test in mice is a paradigm developed several years ago to model the expression of autonomic hyperactivity in anxiety (Lecci A, Borsini F, Volterra G, Meli A. (1990) Pharmacological validation of a novel model of anticipatory anxiety in mice. Psychopharmacology; 101:255-61.; Spooren W P, Schoeffter P, Gasparini F, Kuhn R, Gentsch C. (2002) Pharmacological and endocrinological characterisation of stress-induced hyperthermia in singly housed mice using classical and candidate anxiolytics (LY314582, MPEP and NKP608). Eur J Pharmacol; 435:161-70.;Zethof T J J, van der Heyden J A M, Tolboom J B M, Olivier B (1994) Stress-induced hyperthermia in mice: a methodological study. Phys. Behav. 55:109-115.). […] Pharmacol Biochem Behav 72:179-188.
Male OF1/IC mice (MA205 Tiger code) were obtained several days prior to behavioural testing from Iffa Credo (L'Arbresle, France; 18-20 g) and housed in groups of 15 animals per cage (macrolon cages 42H26H15 cm, Type 4). The animals were individually housed (macrolon cage: 26H21H14 cm, Type 2) 24 h before testing. The day preceding the experiment, all cages were transferred to the testing room—and background noise (radio) was used during the light cycle. Both the animal room and the laboratory were temperature controlled and equipped with artificial illumination (L12:D12; lights on 06:00). Mice always had ad libitum access to water and food (Ecosan, Eberle Nafag A G, Gossau, Schweiz).
The test procedure for the modified stress-induced hyperthermia was adapted from van der Heyden et al. (1997). Rectal temperature was measured in each mouse twice, i.e. at t=0 min (T1) and t=+15 min (T2). The difference in temperature (T2-T1) was considered to reflect the stress-induced hyperthermia (SIH). […] In addition, a comparison between T1 in vehicle-treated mice and in animals treated with a given dose of a test-compound was used, to measure whether a test-compound affected body temperature alone.
Rectal temperature was measured to the nearest 0.1° C. by an ELLAB instruments (Copenhagen, Denmark) thermometer Model DM 852 by inserting a lubricated thermistor probe model PRA-22002-A (ELLAB, Copenhagen, Denmark) (2.2 mm diameter) 20 mm into the rectum; the mouse was hand held at the base of the tail during this determination and the thermistor probe was left in place for 15 s.
All drugs were made up fresh and dissolved in vehicle (0.5% methylcellulose) and administered per os (p.o.) in a volume of 10 ml/kg.
All data was analysed using a one-way analysis of variance (ANOVA) followed where appropriate by Dunnett test of multiple comparisons. The level of significance was set at p<0.05.

With `NC(=O)c1cn(Cc2c(F)cccc2F)nn1` [rufinamide, 1-(2,6-difluorobenzyl)-1H-1,2,3-triazole-4-carboxamide] the “changes in durations of exploratory and stationary elements” value [1] was “followed suit but rarely attained statistical significance”, the “duration of head raising in the open half” value [1] was “increased” and the “duration of inactivity (sta) in the enclosed half” value [1] was “shortened”. The “frequencies of stationary elements (Sta: sitting still, inactivity)” value [1] was “decreased in a significant manner”, the “exploratory elements stretched attend posture (sap), head raising (hu) and forward locomotion (go), frequency” value ([1]; dose-related) was “significantly increased” and the “body temperature T2 (15 min after stress)” value (shortened to “body temperature T2”) ([2]; first experiment, rufinamide 100 mg/kg p.o., p<0.001) was “significant lower body temperature than control animals”. The “SIH response (T2-T1)” value ([2]; first experiment, rufinamide 3, 10, 30, 100 mg/kg p.o., 60 min before T1, n=12) was “only the positive control CDZ (10 mg/kg, p.o.) reversed significantly”, the “dose eliciting a robust reversal of the physiological response to an acute stressor” value ([2]; p.o.) was over 30 mg/kg and the “doses needed to induce robust anxiolytic-like effects in the SIH paradigm” value ([2]; p.o.) was 100 to 300 mg/kg. For the same compound, the “SIH response (T2-T1)” value ([2]; pooled data of all 3 experiments, rufinamide 30, 50, 100, 200 and 300 mg/kg p.o.) was “significantly attenuated”, the “body temperature T2” value ([2]; pooled data, rufinamide 25, 50, 100, 200 and 300 mg/kg) was “significant lower body temperature than control animals” and the “SIH response (T2-T1)” value ([2]; second experiment (0.3, 3, 30, 300 mg/kg tested), rufinamide 0.3, 30 and 300 mg/kg p.o. (p<0.05, p<0.01, p<0.001)) was “significantly attenuated”. The “body temperature T2” value ([2]; second experiment, rufinamide at the highest doses (30 and 100 mg/kg, p.o.)) was “significant lower body temperature than control animals”, the “SIH response (T2-T1)” value ([2]; third experiment (25, 50, 100, 200 mg/kg tested), rufinamide 50 (p<0.05), 100 and 200 mg/kg p.o. (p<0.001)) was “significantly reduced” and the “body temperature T2” value ([2]; third experiment, rufinamide 100 and 200 mg/kg p.o.) was “significant lower body temperature than control animals”.

From patent US20090054414A1, “Rufinamide for the Treatment of Post-Traumatic Stress Disorder” (SYNOSIA THERAPEUTICS, priority 2007, published 2009)
